Experimental findings from patent publication EP4691482A1, “LONG-ACTING CALCITONIN ANALOG” (Chengdu Aoda Biotechnology Co., Ltd., priority 2023, dated 2024) are described below.

The assay addresses T1, calcitonin receptors (CTR) (Homo sapiens, UniProt P30988).
T1 construct: expressed in transfected cells; host or cells: cAMP Hunter HEK293-CT-R Gs cell line (HEK293, stably transfected)
T1 sequence (P30988 25-474): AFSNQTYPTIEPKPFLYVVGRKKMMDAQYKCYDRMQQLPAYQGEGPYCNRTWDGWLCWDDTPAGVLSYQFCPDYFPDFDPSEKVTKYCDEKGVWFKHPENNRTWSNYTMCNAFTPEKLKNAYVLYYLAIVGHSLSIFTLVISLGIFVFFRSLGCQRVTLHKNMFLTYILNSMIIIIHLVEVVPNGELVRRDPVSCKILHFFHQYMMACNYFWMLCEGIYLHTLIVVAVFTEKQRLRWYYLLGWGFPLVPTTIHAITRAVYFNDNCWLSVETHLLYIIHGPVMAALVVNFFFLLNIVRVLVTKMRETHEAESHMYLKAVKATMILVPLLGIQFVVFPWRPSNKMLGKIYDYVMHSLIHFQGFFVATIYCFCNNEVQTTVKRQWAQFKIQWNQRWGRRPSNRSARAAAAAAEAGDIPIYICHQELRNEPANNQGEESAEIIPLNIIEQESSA
Description: cAMP determination (HTRF, cAMP Dynamic 2 Kit) in cAMP Hunter HEK293-CT-R Gs cell line. It is filed as cell-based. Conditions: for Relative Activity%: relative to Salmon Calcitonin = 100.0, HEK293 CT-R cAMP; for EC50: HEK293 cell line stably expressing CT-R, intracellular cAMP, HTRF. From the text:
Upon activation by a ligand, Gas-coupled GPCRs can upregulate intracellular cAMP level, and cAMP, as a second messenger, can mediate a series of cellular responses. The cAMP Hunter HEK293-CT-R Gs cell line, which overexpresses Gas-coupled calcitonin receptors (CTR), was used. The binding of calcitonin (or an analog thereof) to the overexpressed CTR upregulates intracellular cAMP level. The amount of intracellular cAMP produced after activation by the calcitonin (or an analog thereof) was detected using a cAMP Dynamic 2 Kit to evaluate the biological activity of the calcitonin (or an analog thereof). HEK293 cell line stably expressing CT-R was used. Stably transfected cells were stimulated with various concentrations of agonists. The time-resolved fluorescence resonance energy signal from the cells after stimulation with different doses was measured using HTRF technology, from which the biological activity of the agonist was subsequently calculated.
On the technique in general: Time-resolved FRET reads energy transfer from a long-lived donor to a nearby acceptor.

Consider `CC(C)C[C@H](NC(=O)[C@H](CCCCN)NC(=O)CNC(=O)[C@H](CC(C)C)NC(=O)[C@@H](NC(=O)[C@@H]1CSSC[C@H](N)C(=O)N[C@@H](CO)C(=O)N[C@@H](CC(N)=O)C(=O)N[C@@H](CC(C)C)C(=O)N[C@@H](CO)C(=O)N[C@@H]([C@@H](C)O)C(=O)N1)C(C)C)C(=O)N[C@@H](CO)C(=O)N[C@@H](CCC(N)=O)C(=O)N[C@@H](CCC(=O)O)C(=O)N[C@@H](CC(C)C)C(=O)N[C@@H](Cc1c[nH]cn1)C(=O)N[C@@H](CCCCNC(=O)COCCOCCOCCNC(=O)CC[C@H](NC(=O)CCCCCCCCCCCCCCCCCCCCC(=O)O)C(=O)O)C(=O)N[C@@H](CC(C)C)C(=O)N[C@@H](CCC(N)=O)C(=O)N[C@H](C(=O)N[C@@H](Cc1ccc(O)cc1)C(=O)N1CCC[C@H]1C(=O)N[C@@H](CCCNC(=N)N)C(=O)N[C@H](C(=O)N[C@@H](CC(N)=O)C(=O)N[C@H](C(=O)NCC(=O)N[C@@H](CO)C(=O)NCC(=O)N[C@H](C(=O)N1CCC[C@H]1C(N)=O)[C@@H](C)O)[C@@H](C)O)[C@@H](C)O)[C@@H](C)O` [Compound 20, Cys-Ser-Asn-Leu-Ser-Thr-Cys-Val-Leu-Gly-Lys-Leu-Ser-Gln-Glu-Leu-His-Lys(PEG3CH2CO-γGlu-docosanedioic acid)-Leu-Gln-Thr-Tyr-Pro-Arg-Thr-Asn-Thr-Gly-Ser-Gly-Thr-Pro-NH2], for which the “Relative Activity%” value is reported as 296.9%.

In the case of `CC(C)C[C@H](NC(=O)[C@H](CCCCN)NC(=O)CNC(=O)[C@H](CC(C)C)NC(=O)[C@@H](NC(=O)[C@@H]1CSSC[C@H](N)C(=O)N[C@@H](CO)C(=O)N[C@@H](CC(N)=O)C(=O)N[C@@H](CC(C)C)C(=O)N[C@@H](CO)C(=O)N[C@@H]([C@@H](C)O)C(=O)N1)C(C)C)C(=O)N[C@@H](CO)C(=O)N[C@@H](CCC(N)=O)C(=O)N[C@@H](CCC(=O)O)C(=O)N[C@@H](CC(C)C)C(=O)N[C@@H](Cc1c[nH]cn1)C(=O)N[C@@H](CCCCNC(=O)COCCOCCNC(=O)CC[C@H](NC(=O)CCCCCCCCCCCCCCCCCCC(=O)O)C(=O)O)C(=O)N[C@@H](CC(C)C)C(=O)N[C@@H](CCC(N)=O)C(=O)N[C@H](C(=O)N[C@@H](Cc1ccc(O)cc1)C(=O)N1CCC[C@H]1C(=O)N[C@@H](CCCNC(=N)N)C(=O)N[C@H](C(=O)N[C@@H](CC(N)=O)C(=O)N[C@H](C(=O)NCC(=O)N[C@@H](CO)C(=O)NCC(=O)N[C@H](C(=O)N1CCC[C@H]1C(N)=O)[C@@H](C)O)[C@@H](C)O)[C@@H](C)O)[C@@H](C)O` [Compound 2, Cys-Ser-Asn-Leu-Ser-Thr-Cys-Val-Leu-Gly-Lys-Leu-Ser-Gln-Glu-Leu-His-Lys(PEG2CH2CO-γGlu-eicosanedioic acid)-Leu-Gln-Thr-Tyr-Pro-Arg-Thr-Asn-Thr-Gly-Ser-Gly-Thr-Pro-NH2], the “Relative Activity%” value was 231.7%.

One may read the EC50 as the concentration needed to bring the measured effect to its halfway point. Turning to `CC(C)C[C@H](NC(=O)[C@H](CCCCN)NC(=O)CNC(=O)[C@H](CC(C)C)NC(=O)[C@@H](NC(=O)[C@@H]1CSSC[C@H](N)C(=O)N[C@@H](CO)C(=O)N[C@@H](CC(N)=O)C(=O)N[C@@H](CC(C)C)C(=O)N[C@@H](CO)C(=O)N[C@@H]([C@@H](C)O)C(=O)N1)C(C)C)C(=O)N[C@@H](CO)C(=O)N[C@@H](CCC(N)=O)C(=O)N[C@@H](CCC(=O)O)C(=O)N[C@@H](CC(C)C)C(=O)N[C@@H](Cc1c[nH]cn1)C(=O)N[C@@H](CCCCNC(=O)CNC(=O)CNC(=O)[C@H](CO)NC(=O)CNC(=O)[C@H](CO)NC(=O)CNC(=O)CC[C@H](NC(=O)CCCCCCCCCCCCCCCCCCC(=O)O)C(=O)O)C(=O)N[C@@H](CC(C)C)C(=O)N[C@@H](CCC(N)=O)C(=O)N[C@H](C(=O)N[C@@H](Cc1ccc(O)cc1)C(=O)N1CCC[C@H]1C(=O)N[C@@H](CCCNC(=N)N)C(=O)N[C@H](C(=O)N[C@@H](CC(N)=O)C(=O)N[C@H](C(=O)NCC(=O)N[C@@H](CO)C(=O)NCC(=O)N[C@H](C(=O)N1CCC[C@H]1C(N)=O)[C@@H](C)O)[C@@H](C)O)[C@@H](C)O)[C@@H](C)O` [Compound 8], the EC50 is 3.7 pM.

For `CC(C)C[C@H](NC(=O)[C@H](CCCCN)NC(=O)CNC(=O)[C@H](CC(C)C)NC(=O)[C@@H](NC(=O)[C@@H]1CSSC[C@H](N)C(=O)N[C@@H](CO)C(=O)N[C@@H](CC(N)=O)C(=O)N[C@@H](CC(C)C)C(=O)N[C@@H](CO)C(=O)N[C@@H]([C@@H](C)O)C(=O)N1)C(C)C)C(=O)N[C@@H](CO)C(=O)N[C@@H](CCC(N)=O)C(=O)N[C@@H](CCC(=O)O)C(=O)N[C@@H](CC(C)C)C(=O)N[C@@H](Cc1c[nH]cn1)C(=O)N[C@@H](CCCCNC(=O)COCCOCCNC(=O)COCCOCCNC(=O)CC[C@H](NC(=O)CCCCCCCCCCCCCCCCCCC(=O)O)C(=O)O)C(=O)N[C@@H](CC(C)C)C(=O)N[C@@H](CCC(N)=O)C(=O)N[C@H](C(=O)N[C@@H](Cc1ccc(O)cc1)C(=O)N1CCC[C@H]1C(=O)N[C@@H](CCCNC(=N)N)C(=O)N[C@H](C(=O)N[C@@H](CC(N)=O)C(=O)N[C@H](C(=O)NCC(=O)N[C@@H](CO)C(=O)NCC(=O)N[C@H](C(=O)N1CCC[C@H]1C(N)=O)[C@@H](C)O)[C@@H](C)O)[C@@H](C)O)[C@@H](C)O` [Compound 16, Cys-Ser-Asn-Leu-Ser-Thr-Cys-Val-Leu-Gly-Lys-Leu-Ser-Gln-Glu-Leu-His-Lys(AEEA-AEEA-γGlu-eicosanedioic acid)-Leu-Gln-Thr-Tyr-Pro-Arg-Thr-Asn-Thr-Gly-Ser-Gly-Thr-Pro-NH2], the 50% effective concentration (EC50) turned out to be 2.9 pM.

Regarding `CC(C)C[C@H](NC(=O)[C@H](CCCCN)NC(=O)CNC(=O)[C@H](CC(C)C)NC(=O)[C@@H](NC(=O)[C@@H]1CSSC[C@H](N)C(=O)N[C@@H](CO)C(=O)N[C@@H](CC(N)=O)C(=O)N[C@@H](CC(C)C)C(=O)N[C@@H](CO)C(=O)N[C@@H]([C@@H](C)O)C(=O)N1)C(C)C)C(=O)N[C@@H](CO)C(=O)N[C@@H](CCC(N)=O)C(=O)N[C@@H](CCC(=O)O)C(=O)N[C@@H](CC(C)C)C(=O)N[C@@H](Cc1c[nH]cn1)C(=O)N[C@@H](CCCCNC(=O)COCCOCCOCCOCCOCCOCCNC(=O)CC[C@H](NC(=O)CCCCCCCCCCCCCCCCCCC(=O)O)C(=O)O)C(=O)N[C@@H](CC(C)C)C(=O)N[C@@H](CCC(N)=O)C(=O)N[C@H](C(=O)N[C@@H](Cc1ccc(O)cc1)C(=O)N1CCC[C@H]1C(=O)N[C@@H](CCCNC(=N)N)C(=O)N[C@H](C(=O)N[C@@H](CC(N)=O)C(=O)N[C@H](C(=O)NCC(=O)N[C@@H](CO)C(=O)NCC(=O)N[C@H](C(=O)N1CCC[C@H]1C(N)=O)[C@@H](C)O)[C@@H](C)O)[C@@H](C)O)[C@@H](C)O` [Compound 6, Cys-Ser-Asn-Leu-Ser-Thr-Cys-Val-Leu-Gly-Lys-Leu-Ser-Gln-Glu-Leu-His-Lys(PEG6CH2CO-yGlu-eicosanedioic acid)-Leu-Gln-Thr-Tyr-Pro-Arg-Thr-Asn-Thr-Gly-Ser-Gly-Thr-Pro-NH2], the “Relative Activity%” value is given as 172.7%.
